Assay results from ChEMBL document CHEMBL1649268, “Comparative in vitro activity profile of oritavancin against recent gram-positive clinical isolates” (2009).
Converted amounts (≈) assume the structure as drawn.

What was measured:
[1] = system: Streptococcus; assay: Antimicrobial activity against erythromycin-susceptible Streptococcus Group F clinical isolates assessed as percent susceptible isolates by broth microdilution method; assay type: functional
[2] = system: Staphylococcus epidermidis; assay: Antimicrobial activity against Staphylococcus epidermidis clinical isolates assessed as percent susceptible isolates by broth microdilution method; assay type: functional
[3] = system: Streptococcus agalactiae; assay: Antimicrobial activity against Streptococcus agalactiae clinical isolates by broth microdilution method; assay type: functional
[4] = Antimicrobial activity against Streptococcus Group G clinical isolates by broth microdilution method; assay type: functional; conditions: Streptococcus sp. 'group G'
[5] = system: Streptococcus agalactiae; assay: Antimicrobial activity against erythromycin-susceptible Streptococcus agalactiae clinical isolates assessed as percent susceptible isolates by broth microdilution method; assay type: functional
[6] = system: Streptococcus pyogenes; assay: Antimicrobial activity against erythromycin-susceptible Streptococcus pyogenes clinical isolates assessed as percent susceptible isolates by broth microdilution method; assay type: functional
[7] = system: Staphylococcus haemolyticus; assay: Antimicrobial activity against oxacillin-resistant Staphylococcus haemolyticus clinical isolates by broth microdilution method; assay type: functional
[8] = Antimicrobial activity against erythromycin-susceptible Streptococcus Group C clinical isolates assessed as percent susceptible isolates by broth microdilution method; assay type: functional, Streptococcus sp. 'group C'
[9] = system: Streptococcus agalactiae; assay: Antimicrobial activity against erythromycin-susceptible Streptococcus agalactiae clinical isolates by broth microdilution method; assay type: functional
[10] = system: Streptococcus agalactiae; assay: Antimicrobial activity against erythromycin-nonsusceptible Streptococcus agalactiae clinical isolates by broth microdilution method; assay type: functional
[11] = Antimicrobial activity against erythromycin-nonsusceptible Streptococcus Group C clinical isolates assessed as percent susceptible isolates by broth microdilution method; assay type: functional, Streptococcus sp. 'group C'
[12] = system: Streptococcus agalactiae; assay: Antimicrobial activity against Streptococcus agalactiae clinical isolates assessed as percent susceptible isolates by broth microdilution method; assay type: functional
[13] = system: Streptococcus agalactiae; assay: Antimicrobial activity against erythromycin-susceptible Streptococcus agalactiae clinical isolates assessed as resistant isolates by broth microdilution method; assay type: functional
[14] = system: Streptococcus agalactiae; assay: Antimicrobial activity against erythromycin-nonsusceptible Streptococcus agalactiae clinical isolates assessed as resistant isolates by broth microdilution method; assay type: functional
[15] = system: Streptococcus pyogenes; assay: Antimicrobial activity against Streptococcus pyogenes clinical isolates assessed as percent susceptible isolates by broth microdilution method; assay type: functional
[16] = system: Staphylococcus haemolyticus; assay: Antimicrobial activity against Staphylococcus haemolyticus clinical isolates assessed as percent susceptible isolates by broth microdilution method; assay type: functional
[17] = system: Streptococcus; assay: Antimicrobial activity against erythromycin-nonsusceptible Streptococcus Group F clinical isolates by broth microdilution method; assay type: functional
[18] = system: Streptococcus; assay: Antimicrobial activity against erythromycin-susceptible Streptococcus Group F clinical isolates by broth microdilution method; assay type: functional
[19] = system: Staphylococcus haemolyticus; assay: Antimicrobial activity against oxacillin-resistant Staphylococcus haemolyticus clinical isolates assessed as percent susceptible isolates by broth microdilution method; assay type: functional
[20] = Antimicrobial activity against erythromycin-nonsusceptible Streptococcus Group C clinical isolates by broth microdilution method; assay type: functional; conditions: Streptococcus sp. 'group C'
[21] = system: Streptococcus pyogenes; assay: Antimicrobial activity against erythromycin-nonsusceptible Streptococcus pyogenes clinical isolates assessed as percent susceptible isolates by broth microdilution method; assay type: functional
[22] = Antimicrobial activity against erythromycin-susceptible Streptococcus Group G clinical isolates by broth microdilution method; assay type: functional; conditions: Streptococcus sp. 'group G'
[23] = system: Streptococcus pyogenes; assay: Antimicrobial activity against Streptococcus pyogenes clinical isolates by broth microdilution method; assay type: functional
[24] = system: Streptococcus pyogenes; assay: Antimicrobial activity against erythromycin-susceptible Streptococcus pyogenes clinical isolates assessed as resistant isolates by broth microdilution method; assay type: functional
[25] = system: Streptococcus pneumoniae; assay: Antimicrobial activity against penicillin-intermediate Streptococcus pneumoniae clinical isolates assessed as resistant isolates by broth microdilution method; assay type: functional
[26] = system: Staphylococcus epidermidis; assay: Antimicrobial activity against oxacillin-resistant Staphylococcus epidermidis clinical isolates assessed as resistant isolates by broth microdilution method; assay type: functional
[27] = system: Streptococcus pneumoniae; assay: Antimicrobial activity against penicillin-susceptible Streptococcus pneumoniae clinical isolates assessed as percent susceptible isolates by broth microdilution method; assay type: functional
[28] = system: Streptococcus pyogenes; assay: Antimicrobial activity against erythromycin-susceptible Streptococcus pyogenes clinical isolates by broth microdilution method; assay type: functional
[29] = system: Staphylococcus aureus; assay: Antimicrobial activity against oxacillin-susceptible Staphylococcus aureus clinical isolates assessed as percent susceptible isolates by broth microdilution method; assay type: functional
[30] = system: Streptococcus pyogenes; assay: Antimicrobial activity against erythromycin-nonsusceptible Streptococcus pyogenes clinical isolates by broth microdilution method; assay type: functional
[31] = system: Streptococcus agalactiae; assay: Antimicrobial activity against Streptococcus agalactiae clinical isolates assessed as resistant isolates by broth microdilution method; assay type: functional
[32] = Antimicrobial activity against erythromycin-susceptible Streptococcus Group G clinical isolates assessed as percent susceptible isolates by broth microdilution method; assay type: functional, Streptococcus sp. 'group G'
[33] = system: Streptococcus agalactiae; assay: Antimicrobial activity against erythromycin-nonsusceptible Streptococcus agalactiae clinical isolates assessed as percent susceptible isolates by broth microdilution method; assay type: functional
[34] = system: Staphylococcus aureus; assay: Antimicrobial activity against Staphylococcus aureus clinical isolates assessed as resistant isolates by broth microdilution method; assay type: functional
[35] = system: Streptococcus pneumoniae; assay: Antimicrobial activity against penicillin-susceptible Streptococcus pneumoniae clinical isolates by broth microdilution method; assay type: functional
[36] = Antimicrobial activity against Streptococcus Group G clinical isolates assessed as percent susceptible isolates by broth microdilution method; assay type: functional, Streptococcus sp. 'group G'
[37] = system: Streptococcus pneumoniae; assay: Antimicrobial activity against penicillin-intermediate Streptococcus pneumoniae clinical isolates by broth microdilution method; assay type: functional
[38] = system: Streptococcus pneumoniae; assay: Antimicrobial activity against penicillin-intermediate Streptococcus pneumoniae clinical isolates assessed as percent susceptible isolates by broth microdilution method; assay type: functional
[39] = system: Streptococcus pneumoniae; assay: Antimicrobial activity against penicillin-resistant Streptococcus pneumoniae clinical isolates by broth microdilution method; assay type: functional
[40] = system: Staphylococcus haemolyticus; assay: Antimicrobial activity against oxacillin-resistant Staphylococcus haemolyticus clinical isolates assessed as resistant isolates by broth microdilution method; assay type: functional
[41] = system: Staphylococcus aureus; assay: Antimicrobial activity against oxacillin-resistant Staphylococcus aureus clinical isolates assessed as resistant isolates by broth microdilution method; assay type: functional
[42] = system: Streptococcus pneumoniae; assay: Antimicrobial activity against penicillin-resistant Streptococcus pneumoniae clinical isolates assessed as percent susceptible isolates by broth microdilution method; assay type: functional
[43] = Antimicrobial activity against erythromycin-nonsusceptible Streptococcus Group C clinical isolates assessed as resistant isolates by broth microdilution method; assay type: functional, Streptococcus sp. 'group C'
[44] = Antimicrobial activity against Streptococcus Group C clinical isolates by broth microdilution method; assay type: functional; conditions: Streptococcus sp. 'group C'
[45] = system: Streptococcus; assay: Antimicrobial activity against Streptococcus Group F clinical isolates by broth microdilution method; assay type: functional
[46] = system: Streptococcus pneumoniae; assay: Antimicrobial activity against Streptococcus pneumoniae clinical isolates by broth microdilution method; assay type: functional
[47] = Antimicrobial activity against erythromycin-susceptible Streptococcus Group C clinical isolates by broth microdilution method; assay type: functional; conditions: Streptococcus sp. 'group C'
[48] = system: Streptococcus pneumoniae; assay: Antimicrobial activity against Streptococcus pneumoniae clinical isolates assessed as percent susceptible isolates by broth microdilution method; assay type: functional
[49] = Antimicrobial activity against erythromycin-nonsusceptible Streptococcus Group G clinical isolates by broth microdilution method; assay type: functional; conditions: Streptococcus sp. 'group G'
[50] = system: Enterococcus faecalis; assay: Antimicrobial activity against vancomycin-susceptible Enterococcus faecalis clinical isolates assessed as percent susceptible isolates by broth microdilution method; assay type: functional
[51] = system: Enterococcus faecium; assay: Antimicrobial activity against vancomycin-nonsusceptible Enterococcus faecium clinical isolates assessed as percent susceptible isolates by broth microdilution method; assay type: functional
[52] = system: Enterococcus faecium; assay: Antimicrobial activity against Enterococcus faecium expressing VanA gene clinical isolates by broth microdilution method; assay type: functional
[53] = system: Enterococcus faecalis; assay: Antimicrobial activity against vancomycin-nonsusceptible Enterococcus faecalis clinical isolates assessed as percent susceptible isolates by broth microdilution method; assay type: functional
[54] = system: Enterococcus faecium; assay: Antimicrobial activity against Enterococcus faecium clinical isolates assessed as percent susceptible isolates by broth microdilution method; assay type: functional
[55] = system: Enterococcus faecalis; assay: Antimicrobial activity against Enterococcus faecalis expressing VanB gene clinical isolates by broth microdilution method; assay type: functional
[56] = system: Enterococcus faecalis; assay: Antimicrobial activity against Enterococcus faecalis clinical isolates by broth microdilution method; assay type: functional
[57] = system: Enterococcus faecalis; assay: Antimicrobial activity against vancomycin-susceptible Enterococcus faecalis clinical isolates assessed as resistant isolates by broth microdilution method; assay type: functional

CCC[C@@H]1C[C@@H](C(=O)N[C@@H]([C@H]2O[C@H](SC)[C@H](O)[C@@H](O)[C@H]2O)[C@H](C)Cl)N(C)C1 [CLINDAMYCIN]
Activity [1]: 100% | Activity [2]: 65% | MIC90 [3]: > 1 µg/mL | MIC90 [4]: 0.06 µg/mL (≈ 0.141 µM) | Activity [5]: 99% | Activity [6]: 100% | MIC90 [7]: > 4 µg/mL | Activity [8]: 100% | MIC90 [9]: 0.06 µg/mL (≈ 0.141 µM) | MIC90 [10]: > 1 µg/mL | Activity [11]: 82.4% | Activity [12]: 81.9% | Activity [13]: 1% | Activity [14]: 57.4% | Activity [15]: 96% | Activity [16]: 70.3% | MIC90 [17]: > 1 µg/mL | MIC90 [18]: 0.06 µg/mL (≈ 0.141 µM) | Activity [19]: 60.9% | MIC90 [20]: > 1 µg/mL | Activity [21]: 71% | MIC90 [22]: 0.06 µg/mL (≈ 0.141 µM) | MIC90 [23]: 0.06 µg/mL (≈ 0.141 µM) | Activity [24]: 0% | Percent of isolates resistant [25]: 15.3% | Percent of isolates resistant [26]: 43.3% | Activity [27]: 97.2% | MIC90 [28]: 0.06 µg/mL (≈ 0.141 µM) | Activity [29]: 91.8% | MIC90 [30]: > 1 µg/mL | Activity [31]: 17.6% | Activity [32]: 100% | Activity [33]: 41% | Percent resistant isolates [34]: 24.1% | MIC90 [35]: 0.06 µg/mL (≈ 0.141 µM) | Activity [36]: 96.4% | MIC90 [37]: > 1 µg/mL | Activity [38]: 84.7% | MIC [39]: > 0.03 µg/mL | Activity [40]: 37.1% | Percent resistant isolates [41]: 37.9% | Activity [42]: 45.3% | Activity [43]: 17.6% | MIC90 [44]: 0.06 µg/mL (≈ 0.141 µM) | MIC90 [45]: 0.06 µg/mL (≈ 0.141 µM) | MIC90 [46]: > 1 µg/mL | MIC90 [47]: 0.06 µg/mL (≈ 0.141 µM) | Activity [48]: 86.9% | MIC90 [49]: > 1 µg/mL

C[C@H]1COc2c(N3CCN(C)CC3)c(F)cc3c(=O)c(C(=O)O)cn1c23.C[C@H]1COc2c(N3CCN(C)CC3)c(F)cc3c(=O)c(C(=O)O)cn1c23.O [LEVOFLOXACIN]
Activity [50]: 64.4% | MIC90 [3]: 1 µg/mL | MIC90 [4]: 0.5 µg/mL | Activity [5]: 98.6% | Activity [6]: 100% | Activity [8]: 100% | MIC90 [9]: 1 µg/mL | MIC90 [10]: 1 µg/mL | Activity [12]: 97.8% | Activity [13]: 1.4% | Activity [14]: 4.1% | Activity [15]: 99.9% | MIC90 [17]: 0.5 µg/mL | MIC90 [18]: 0.5 µg/mL | MIC90 [20]: 0.5 µg/mL | Activity [21]: 99.2% | MIC90 [22]: 0.5 µg/mL | MIC90 [23]: 0.5 µg/mL | Activity [24]: 0% | Activity [51]: 0.2% | MIC90 [52]: > 16 µg/mL | Percent of isolates resistant [25]: 2.3% | Activity [27]: 99.5% | MIC90 [28]: 0.5 µg/mL | MIC90 [30]: 1 µg/mL | Activity [31]: 2.2% | Activity [32]: 100% | Activity [53]: 0% | Activity [33]: 95.9% | MIC90 [35]: 1 µg/mL | Activity [54]: 12.2% | MIC90 [37]: 1 µg/mL | MIC90 [55]: > 16 µg/mL | Activity [38]: 97.7% | MIC90 [39]: 1 µg/mL | MIC90 [56]: > 16 µg/mL | Activity [42]: 99.3% | Activity [57]: 35.2% | Activity [43]: 0% | MIC90 [44]: 0.5 µg/mL | MIC90 [45]: 0.5 µg/mL | MIC90 [46]: 1 µg/mL | MIC90 [47]: 0.5 µg/mL | Activity [48]: 99.1% | MIC90 [49]: 0.5 µg/mL
